Data set [1] concerns the target T1, S-2L PurZ (Cyanophage S-2L, UniProt A0A7U3TBV6).
T1 construct: E. coli codon-optimized synthetic gene, N-terminal 14-His tag removed by TEV, expressed in E. coli; dimer
The experiment in a line: HPLC product analysis. In kind it is biochemical. To be noted: 10 mM aspartate, dGMP, 5 mM MgSO4, pH 7.5, 37 °C.

Data set [2] deals with S-2L MazZ (MazG-like (d)GTP-specific nucleotide diphosphohydrolase of cyanophage S-2L) (cyanophage S-2L). The experiment in a line: crystal structure; S-2L MazZ with the dGTP dephosphorylation product (dGDP) and Mn2+, 1.43 Å; crystals grown at 18 °C in 200 mM Li2SO4, 1.26 M (NH4)2SO4, 100 mM Tris pH 8.5; tetramer in the asymmetric unit.
In data set [3] the target is T1, S-2L PurZ. The experiment in a line: X-ray crystal structure, […] Å. It is filed as binding. As to conditions: co-crystallised with dGMP, soaked with dATP; pH 7.
Data set [4] deals with T2, S-2L MazZ (Cyanophage S-2L, UniProt A0A7U3TBV3).
T2 construct: gene S2L_23; E. coli codon-optimized synthetic gene, N-terminal 14-His tag removed by TEV, expressed in E. coli; homotetramer
The experiment in a line: HPLC product analysis. In kind it is biochemical. As to conditions: 100 uM nucleotide, 5 mM MgCl2, pH 7.5, 37 °C.

The target in data set [5] is T2, S-2L MazZ. The experiment in a line: X-ray crystal structure, […] Å. It is filed as binding. To be noted: crystallised with dGTP; dephosphorylation product dGDP; three Mn2+ ions; pH 8.5.
Data set [6] concerns the molecule itself. The experiment in a line: crystal structure; S-2L PurZ with dGMP and dATP, 1.7 Å; crystals grown at 4 °C in 15% Tacsimate, 2% PEG 3350, 100 mM HEPES pH 7; dimer reconstructed through crystallographic symmetry.

For the molecule `N[C@@H](CC(=O)O)C(=O)O` [aspartic acid], in data set [1] (dATP/ATP), the HPLC product analysis result is “reaction catalyzed by PurZ in presence of dGMP, Asp and dATP/ATP”.
“S-2L MazZ (MazG-like (d)GTP-specific nucleotide diphosphohydrolase of cyanophage S-2L) (enzyme)”: the stoichiometry N (in general, a count of units in the complex or per binding partner) in data set [2] was 4.
With `Nc1nc2c(ncn2[C@H]2C[C@H](O)[C@@H](COP(=O)(O)O)O2)c(=O)[nH]1` [dGMP], in data set [3], the “X-ray crystal structure, 1.7 Å” value was “We crystallized S-2L PurZ with two of its substrates, dGMP and dATP”.
Turning to `Nc1nc2c(ncn2[C@@H]2O[C@H](COP(=O)(O)OP(=O)(O)OP(=O)(O)O)[C@@H](O)[C@H]2O)c(=O)[nH]1` [GTP], the HPLC product analysis entry in data set [4] was “Its preferential substrates, dGTP and GTP, are rapidly dephosphorylated to dGMP and GMP”.
Turning to `Nc1nc2c(ncn2[C@H]2C[C@H](O)[C@@H](COP(=O)(O)OP(=O)(O)OP(=O)(O)O)O2)c(=O)[nH]1` [dGTP], the HPLC product analysis result in data set [4] was “Its preferential substrates, dGTP and GTP, are rapidly dephosphorylated to dGMP and GMP”.
For `Nc1ncnc2c1ncn2[C@H]1C[C@H](O)[C@@H](COP(=O)(O)OP(=O)(O)OP(=O)(O)O)O1` [dATP], the “X-ray crystal structure, 1.7 Å” value in data set [3] is “We crystallized S-2L PurZ with two of its substrates, dGMP and dATP”.
With `Nc1nc2c(ncn2[C@H]2C[C@H](O)[C@@H](COP(=O)(O)OP(=O)(O)O)O2)c(=O)[nH]1` [dGDP], in data set [5], the “X-ray crystal structure, 1.43 Å” value is on record as “The dGDP intermediate observed in crystallo is almost completely buried inside the enzyme”.
With `Nc1ncnc2c1ncn2[C@@H]1O[C@H](COP(=O)(O)OP(=O)(O)OP(=O)(O)O)[C@@H](O)[C@H]1O` [ATP], in data set [1] (2 mM nucleotides), the HPLC product analysis result is reported as “it can act as a dATPase, but stays functional after dATP pool depletion by using ATP”.

B1: S-2L PurZ (homologue of adenylosuccinate synthetase of cyanophage S-2L) (enzyme)
chain: MLSIPPYYRVKNCNLIVDCQYGSTGKGLLAGYLGALEAPQVLCMAPSPNAGHTLVEEDGTARVHKMLPLGITSPSLERIYLGPGSVIDMDRLLEEYLALPRQVELWVHQNAAVVLQEHRDEEAAGGLAPGSTRSGAGSAFIAKIRRRPGTLLFGEAVRDHPLHGVVRVVDTRTAQDMLFRTRSIQAEGCQGYSLSVHHGAYPYCTARDVTTAQLIADCGLPYDVARIARVVGSMRTYPIRVANRPEAGEWSGPCYPDSVECQFADLGLEQEYTTVTKLPRRIFTFSAIQAHEAIAQNGVDEVFLNFAQYPPSLGALEDILDAIEARAEVTYVGFGPKVTDVYHTPTRAELEGLYARYRR
notes: PurZ of cyanophage S-2L, product of the gene purZ; synthetic gene optimised for E. coli; Crystallised with dGMP and soaked with dATP; The dimer is made by crystallographic symmetry; source: E. coli BL21-CodonPlus (DE3)-RIPL, purified (Ni-NTA, TEV cleavage, Superdex 200); not shown: His14, N-terminal, cleaved
Turning to B1, the “stoichiometry N” value in data set [6] turned out to be 2.

The record behind these values is paper PMC8342488, “Characterization of a triad of genes in cyanophage S-2L sufficient to replace adenine by 2-aminoadenine in bacterial DNA” (Nature Communications, 2021).
